Test results reported in article PMC4019635 (PLoS ONE, 2014).

How the values were obtained:
RDLbd = biological target: T1, RDLbd (Drosophila melanogaster, UniProt P25123); experiment: cell-based
T1 sequence (P25123 45-606): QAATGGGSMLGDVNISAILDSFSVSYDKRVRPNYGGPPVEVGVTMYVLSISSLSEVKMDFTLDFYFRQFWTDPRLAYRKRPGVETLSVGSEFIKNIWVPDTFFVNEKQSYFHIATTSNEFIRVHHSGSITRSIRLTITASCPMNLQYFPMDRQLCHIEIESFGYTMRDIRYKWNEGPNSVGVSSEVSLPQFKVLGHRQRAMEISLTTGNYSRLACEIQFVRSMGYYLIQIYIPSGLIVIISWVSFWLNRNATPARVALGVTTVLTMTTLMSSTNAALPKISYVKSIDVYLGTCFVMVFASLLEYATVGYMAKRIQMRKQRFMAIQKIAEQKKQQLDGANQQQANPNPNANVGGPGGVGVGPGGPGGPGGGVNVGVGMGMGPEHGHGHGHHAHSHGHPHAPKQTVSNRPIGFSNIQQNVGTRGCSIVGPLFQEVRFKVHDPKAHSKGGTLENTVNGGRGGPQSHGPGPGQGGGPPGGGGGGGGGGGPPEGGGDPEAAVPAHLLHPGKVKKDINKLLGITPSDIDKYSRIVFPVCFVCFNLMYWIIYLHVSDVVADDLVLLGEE

[1] = tested on: human glycine α1 receptor A288G; set-up: method as in PMID 20308070; details: A288G mutation; cited from earlier work
[2] = tested on: Drosophila carrying the P299S mutation in GluCl; set-up: method as in PMID 11095718; details: cited from earlier work
RDLbdI/VA^301S = experiment: cell-based; set-up: species or system Drosophila melanogaster; details: compared to wild-type / RDLbdI/V
[3] = tested on: Drosophila carrying the RDLA^301S mutation; set-up: method as in PMID 11095718; details: cited from earlier work
RDLbdI/V = RDLbdI/V (Drosophila melanogaster, UniProt P25123, I283V); experiment: cell-based; details: for concentration at which responses failed to saturate: highest concentration usable, TACA, muscimol, β-alanine insoluble at higher concentrations
Chain of RDLbdI/V (P25123 45-606 I283V): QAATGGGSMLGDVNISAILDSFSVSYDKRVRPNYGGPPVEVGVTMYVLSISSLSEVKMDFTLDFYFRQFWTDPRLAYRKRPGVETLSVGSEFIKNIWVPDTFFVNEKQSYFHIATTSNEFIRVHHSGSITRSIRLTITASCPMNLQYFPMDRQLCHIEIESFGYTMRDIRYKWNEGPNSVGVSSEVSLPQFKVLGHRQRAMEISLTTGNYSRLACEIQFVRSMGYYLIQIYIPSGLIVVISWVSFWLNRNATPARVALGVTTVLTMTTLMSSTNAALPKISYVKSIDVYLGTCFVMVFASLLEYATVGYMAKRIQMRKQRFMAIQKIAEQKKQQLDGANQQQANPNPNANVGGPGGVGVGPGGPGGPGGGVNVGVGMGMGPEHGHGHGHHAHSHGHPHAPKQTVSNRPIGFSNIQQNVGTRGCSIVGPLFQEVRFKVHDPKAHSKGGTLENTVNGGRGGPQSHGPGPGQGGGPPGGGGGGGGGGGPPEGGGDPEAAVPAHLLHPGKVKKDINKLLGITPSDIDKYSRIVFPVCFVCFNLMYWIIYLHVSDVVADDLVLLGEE

RDL A^301S mutation = tested on: RDL A^301S mutation; set-up: method as in PMID 2124226; details: cited from earlier work

Row | SMILES | IC50 (RDLbd) [µM] | resistance caused by the A^301S mutation (RDLbdI/VA^301S) [fold] | concentration at which responses failed to saturate (RDLbdI/V) [mM] | other results
1 | CC[C@H](C)[C@H]1O[C@]2(CC[C@@H]1C)C[C@@H]1C[C@@H](C/C=C(\C)[C@@H](O[C@H]3C[C@H](OC)[C@@H](O[C@H]4C[C@H](OC)[C@@H](O)[C@H](C)O4)[C@H](C)O3)[C@@H](C)/C=C/C=C3\CO[C@@H]4[C@H](O)C(C)=C[C@@H](C(=O)O1)[C@]34O)O2 [IVM, ivermectin] | 0.525 | 2 | – | increase in sensitivity [1]: ~100 fold; sensitivity change [2]: ten-fold less sensitive; resistance compared to the wild-type [3]: 3.3 fold
2 | N#Cc1nn(-c2c(Cl)cc(C(F)(F)F)cc2Cl)c(NCc2cnccn2)c1SCF [Pyrafluprole, pyrafluprole] | 0.631 | 2 | – | –
3 | NC/C=C/C(=O)O [TACA, trans-4-aminocrotonic acid] | – | – | 6 | –
4 | ClC1=C(Cl)[C@]2(Cl)[C@@H]3[C@@H]4C[C@@H]([C@H]5O[C@@H]45)[C@@H]3[C@@]1(Cl)C2(Cl)Cl [dieldrin] | – | – | – | resistance (RDL A^301S mutation): > 4000 fold
5 | N#Cc1nn(-c2c(Cl)cc(C(F)(F)F)cc2Cl)c(N)c1[S+]([O-])C(F)(F)F (stereo not drawn) [fipronil] | 0.331 | 3 | – | current induced when applied alone (RDLbdI/V; 1 nM−100 µM, no GABA, receptor variant not stated, data not shown): no discernible current
6 | O=C(O)C1=CCNCC1 [isoguvacine] | – | – | 3 | –
7 | NCc1cc(=O)[nH]o1 [muscimol] | – | – | 3 | –
8 | NCCC(=O)O [β-alanine] | – | – | 10 | –
